The record followed here is EPA's ToxValDB 9.5 (doi:10.2903/j.efsa.2014.3560).

For series [1], the system named is Rattus norvegicus. The settings on record: for NOAEL: reproduction developmental; for LD50: acute, oral, mortality.
The test system of series [2] is Anas platyrhynchos.
Series [3] deals with Apis mellifera. The settings on record: acute, duration: 48 hours, mortality.
In series [4] the test system is Bibionidae. The settings on record: chronic/long-term; duration: 28 days; M/F; development.
Series [5] relates to Canidae. The settings on record: chronic; duration: 1 years; oral; Dog Other; clinical signs.
For series [6], the system named is Colinus virginianus. The settings on record: acute, oral, mortality.
In series [7] the test system is Lepomis macrochirus. The settings on record: acute; duration: 96 hours; mortality.
The subject of series [8] is Pimephales promelas. The settings on record: chronic/long-term.
The subject of series [9] is Tagia sp.
Series [10] deals with Aphidius rhopalosiphi. The experiment in a line: LR50; higher = less toxic. The settings on record: not reported; mortality.
The subject of series [11] is Typhlodromus pyri. Briefly: LR50; higher = less toxic. The settings on record: chronic/long-term; duration: 7 days; mortality.

Converted amounts (≈) assume the structure as drawn.

In general, NOAEL refers to the highest dose or exposure tested at which no adverse effect was seen. Turning to `CC1(C)C(C=C(Cl)C(F)(F)F)C1C(=O)OC(C#N)c1cccc(Oc2ccccc2)c1` (stereo not drawn) [alpha-Cyhalothrin], the NOAEL in [1] is 0.125 mg/kg-day; in [1] (body weight) it was 0.5 mg/kg-day.
Take `CC1(C)[C@H](C(=O)O[C@H](C#N)c2cccc(Oc3ccccc3)c2)[C@@H]1/C=C(\Cl)C(F)(F)F` [gamma-Cyhalothrin]: the LD50 was > 429 mg/kg-day in series [2] (short-term, oral, feed, mortality); 0.005 µg/piece in series [3] (dermal); 4.2 µg/piece in series [3] (oral, unspecified); 225 mg/kg-day in [6] (diet); > 2000 mg/kg-day in series [6]; > 55 mg/kg-day in series [1] (F). For the same compound, in series [1] (M), the LD50 was > 50 mg/kg-day. The NOEC in series [4] came out at 0.0469 µg/L; in series [8], 0.0155 µg/L; in series [9] (chronic/long-term, reproduction) it was 0.5 mg/kg. Moreover, the NOAEL in series [5] and in [1] (body weight) was 0.5 mg/kg-day throughout. Moreover, the LC50 in [7] was 0.0354 ng/mL (≈ 0.0787 nM); in [9] (acute, duration: 14 days, mortality) it was > 1300 mg/kg. Besides, the LR50 was 0.23 g/ha in series [10] and 0.0006 g/ha in [11].
For `CC1(C)[C@H](/C=C(\Cl)C(F)(F)F)[C@@H]1C(=O)O[C@@H](C#N)c1cccc(Oc2ccccc2)c1` [lambda-Cyhalothrin], in [2] (reproductive, reproduction), the NOEC was found to be 1.35 mg/kg-day. In series [5], the NOAEL was determined as 0.5 mg/kg-day.
